Consider 4 molecules from article PMC9450014, “The evaluation of ADME and pharmacokinetic properties of decoquinate derivatives for the treatment of malaria” (Frontiers in Pharmacology, 2022).

Converted amounts (≈) assume the structure as drawn. Like-named read-outs stand apart in the source and are kept apart here.

Usually LogD stands for the decadic logarithm of the distribution of all forms, ionised or not, between an organic phase and buffer at a given pH. As usually defined, the half-life is the time in which the quantity being followed falls by half. The logD is lipophilicity at a set pH, counting ionised and neutral species. A low value points to lower lipophilicity. The term kinetic solubility denotes solubility judged after dilution from a stock solution rather than from solid. Usually solubility stands for how much of the substance goes into solution per volume.

The subject of series [1] is multidrug resistant Pf K1. Further details: method as in Beteck et al., 2018. As to conditions: ref Beteck et al., 2018; read-out: IC50 against multidrug resistant Pf K1; cited from earlier work.
The subject of series [2] is Pf NF54. As to conditions: ref Beteck et al., cited from earlier work.
For series [3] the following is noted: pH range of 4–9; ref EFSA 2003; cited from earlier work.
Details of series [4]: method as in Wang et al., 2014. The following applies: dosed as a micro-suspension in mice; ref Wang et al., 2014; cited from earlier work.
For series [5] the following is noted: cited from earlier work.
Series [6] can be described thus: Metabolic stability in human liver microsomes. Type of series: in vitro ADME. The following applies: for Estimated in vivo CLH HLM: *protein binding data not included; for CLint scaled: human, calculated from t1/2 in HLM, read-out: In vitro CLint HLM; for CLint scaled / half-life: pooled liver microsomes; for half-life: human liver microsomes, NADPH, read-out: Degradation half-life HLM. The procedure:
(§1) A 5-point metabolic stability assay in human and mouse liver microsomes were performed in duplicate in 96-well plates. Stock solution of RMB005, −059 and 060 prepared in DMSO were individually incubated at 37°C in mouse and pooled human liver microsomes (0.4 mg/mL). An aliquot was removed at 0 min and quenched with ice cold acetonitrile containing the internal standard carbamazepine (0.1 μM). The cofactor NADPH was added, and the reactions were subsequently stopped at time points 5, 10, 30, and 60 min by removal of an aliquot and quenching with ice cold acetonitrile containing the internal standard. The supernatant of all samples were analysed via LC-MS/MS analysis (reverse phase Gemini NX-C18 column and Shimadzu HPLC and AB Sciex 3200 Q TRAP MS). Calculation of in vitro t1/2, intrinsic clearance rate (CLint) and predicted in vivo clearance (CLH) was carried out using the following equations ([Obach 1999]). CLintClint= 0.693/t1/2(min) ×Volume of incubation (μL)/microsomal protein (μg) Where t1/2 is calculated in minutes.
(§2) Predicted in vivo CLH CLH=Q × fu(plasma)×CLint/fu(mic)/Q+ fu(plasma)× CLint/fu(mic) Where Q is the hepatic blood flow of mouse (90 mL/min/kg) or human (20.7 mL/min/kg). Fu(plasma) is the unbound drug fraction in the plasma and fu(mic) is the unbound fraction in the microsomes.
(§3) The equation below was used in the case of RMB059 and -060, where protein-binding data were not available. CLH=Q × CLint/Q+ CLint

The nature of series [7]: Lipophilicity, 1-octanol/phosphate buffer pH 7.4 (LogD7.4). Type of series: physicochemical. The procedure: Stock solutions ([…]) of compounds were diluted to 100 μM in 96-well deep-well plate containing 1-octanol and phosphate buffer at pH 7.4. The plate was agitated on an orbital shaker at 750 rpm for 2 h. The organic and buffer layers of each well were transferred separately to a new analysis plate. The samples were analysed with the HPLC-diode array detection as described for kinetic solubility. Samples from both layers were analysed to determine LogD7.4 values.

For series [8], the system named is multidrug resistant Pf W2. Also noted: method as in Beteck et al., 2018. The following applies: ref Beteck et al., 2018; read-out: Activity against multidrug resistant Pf W2; cited from earlier work.
Series [9] is described as follows: Passive permeability, parallel artificial membrane permeation assay (PAMPA). Type of series: in vitro ADME. The following applies: donor pH 6.5, acceptor pH 7.4, 4 h, read-out: Permeability (LogPapp) (converted). The procedure: A parallel artificial membrane permeation assay (PAMPA) was used to assess the passive permeability of compounds with a 96-well MultiScreen filter plate ([…] pore size, Millipore). The filter plate was precoated with 5% hexadecane in hexane. Stock solutions of compounds were diluted to 1 mM in a donor buffer (pH 6.5). Lucifer yellow was added to the apical wells of the precoated MultiScreen plate containing compound donor solution. The donor buffer solutions were spiked with each test compound (1 mM). The acceptor-buffer solution was prepared by adding 10 μL DMSO to 990 μL acceptor buffer (pH 7.4) and 250 μL were added to the basolateral (acceptor) wells. The donor plate was carefully inserted into the acceptor plate and incubated at room temperature for 4 h. After the incubation period, 50 μL of samples from the acceptor plate were transferred to a round bottom 96-well plate, together with 30 μL of donor buffer for matrix matching. Theoretical equilibrium samples for each test compound were prepared by adding 150 μL of donor solutions to 250 μL acceptor solutions and left at room temperature. These theoretical equilibrium samples represent complete transfer of the compound into the donor well. For the theoretical equilibrium samples, 80 μL were added to the analysis plate. Lastly, 160 μL of the internal standard carbamazepine (0.1 μM) was added to all acceptor and equilibrium samples. A portion of the sample containing Lucifer yellow was analyzed on a BioRad iMark^TM Microplate Absorbance Reader (BioRad, Hercules, CA, United States; excitation 490 nm, emission 510–570 nm) to determine that P app was within the acceptable range (<50 nm/s). Samples were analysed using reverse phase Gemini NX-C18 column (5 μM, 2.1 mm × 50 mm) with a Shimadzu HPLC coupled with an AB Sciex 3200 Q TRAP MS). The Papp for each compound was determined using. C=VD × VA/(VD+VA) ×A×t where VA = volume of donor compartment (0.15 cm^3), VD = volume of acceptor compartment (0.25 cm^3), A = accessible filter area (0.24 cm^2) and t = incubation time (14,400 s). […]

A short description of series [10]: Plasma stability. In kind it is in vitro ADME. The following applies: human plasma; for half-life: pooled plasma, 37°C. How it is done:
Stock solutions of compounds in DMSO were used to spike pooled human plasma. Samples were transferred in duplicate to 6 different wells of a 96-deep well plate. An aliquot of each sample was immediately quenched with ice cold acetonitrile containing the internal standard carbamazepine (0.1 μM), after which the plate was incubated in a water bath (37°C for 1 h). Aliquots of samples were removed at 5, 15, 40, 60, and 180 min and quenched with ice cold acetonitrile. After samples of the final time point were precipitated, the supernatant was transferred to a round bottom 96-well plate for analysis by LC-MS/MS using a reverse phase Gemini NX-C18 column (5 μM, 2.1 mm × 50 mm) with a Shimadzu HPLC coupled with an AB Sciex 3200 Q TRAP MS). The peak area ratios were used to calculate the amount of parent compound remaining and t1/2 in plasma, using the following equations.
% Parent remaining % Parent= Normalised peak area of sample at timepoint/Normalised peak area of sample at t=0 x 100
Predicted t1/2 t1/2= −0.693/λ Where λ is the slope of the Ln % parent remaining vs. time curve.

Series [11] is described as follows: Metabolic stability in mouse liver microsomes. Type of series: in vitro ADME. The following applies: for Estimated in vivo CLH MLM: *protein binding data not included; for half-life: mouse liver microsomes, NADPH, read-out: Degradation half-life MLM; for CLint scaled: mouse, liver microsomes, calculated from t1/2 in MLM, read-out: In vitro CLint MLM. The procedure: as §1, §2, §3

A short description of series [12]: Kinetic solubility in PBS (HPLC-DAD). As to conditions: phosphate buffer saline (PBS); for solubility kinetic at 2 h: aqueous buffer, kinetic from dmso stock. Type of series: physicochemical. The procedure:
Stock concentrations of test samples (10 mM) were prepared in DMSO and diluted to a final concentration of […] in phosphate buffer saline (PBS) solutions at pH 2, 6.5, and 7.4 in flat-bottomed 96-well plates. A three-point calibration curve of each control and test compound was prepared from stock solutions in DMSO. Plates were agitated on an orbital shaker at room temperature for 2 h at 200 rpm and subsequently analysed using a reverse phase Gemini NX-C18 column (5 μM, 2.1 mm × 50 mm) with an Agilent 1,200 Rapid Resolution HPLC and diode array detection.

Series [13] deals with Neospora caninum. Also noted: method as in Beteck et al., 2018. As to conditions: in vitro; ref Beteck et al., 2018; read-out: IC50 against Neospora caninum; cited from earlier work.
Series [14] concerns Toxoplasma gondii (Tg). Also noted: method as in Beteck et al., 2018. The following applies: in vitro; ref Beteck et al., 2018; read-out: IC50 against Toxoplasma gondii; cited from earlier work.
Series [15] relates to P. berghei sporozoite liver stages. The following applies: abstract; no reference given; cited from earlier work.
The conditions of series [16]: cited from earlier work. This is another data set of the same source.
On the set-up of series [17]: method as in Tanner et al., 2019. As to conditions: ref Tanner et al., 2019; cited from earlier work.
[18] abbreviates: 2018, read-out: IC50 against Pf NF54.

`CCCCCCCCCCOc1cc2c(O)c(C(=O)OCC)cnc2cc1OCC` [DQ, decoquinate]: the IC50 was 64.9 nM in series [1]; 26 nM in series [2] (Pf NF54, 2018, read-out: NF54 IC50 (line in the PK figures, in vitro IC50 in the discussion)); 26.6 nM in [2] (2016, read-out: In vitro activity against chloroquine-sensitive NF54 asexual parasites); 26.6 nM in series [2] (setting [18]). The “Solubility in buffered aqueous solutions” value in [3] was 0.024 µM (≈ 0.01 µg/mL). Moreover, in [3], the “Solubility in buffered water” value is 0.01 µg/mL (≈ 0.0239 µM). The “Relative BA” value in series [4] is listed as 6%. Further, the “Octanol/water partition coefficient (Log Kow or LogP)” value in series [5] (25°C, pH 5, 7, or 9, ref Bampidis et al., 2019) is listed as at least 5.7. Moreover, the LogD in series [5] (ref Burger et al., 2018) is 7.8.

For the molecule `CCCCCCCCCCOc1cc2c(OC(=O)N3CCOCC3)c(C(=O)OCC)cnc2cc1OCC` [RMB059], the “Estimated in vivo CLH HLM” value in series [6] is 19.7* mL/min/kg. For the same molecule, the values for the CLint scaled in series [6] and in [11] were 24.6 L/h/kg and 27.4 L/h/kg, respectively. Moreover, the half-life in series [6] stood at 10.6 min; in [10], 66 min; in [11] it was 16.6 min. In addition, the IC50 in series [1] was 14.4 nM; in series [2] (setting [18]) it was 6.8 nM; in [8], 5.7 nM. This molecule returned a logD at 2 h in series [7] of 2.9. Further, in series [9], the Papp at 4 h, 1 mM is 15.8 nm/s. In addition, the “Plasma stability (in words)” value in [10] is “high degree of lability”. Further, the “Estimated in vivo CLH MLM” value in series [11] is 75.2* mL/min/kg. In addition, the solubility (kinetic) at 2 h is below 5 µM in series [12] (PBS pH 2, read-out: Kinetic solubility pH 2); below 5 µM in series [12] (PBS pH 6.5, read-out: Kinetic solubility pH 6.5); below 5 µM in [12] (PBS pH 7.4, read-out: Kinetic solubility pH 7.4). Further, the solubility at 2 h in series [12] (all pH levels tested (pH 2, 6.5, 7.4)) was below 5 µM.

As for `CCCCCCCCCCOc1cc2c(OC(=O)N3CCN(S(C)(=O)=O)C3=O)c(C(=O)OCC)cnc2cc1OCC` [RMB060], in series [6], the “Estimated in vivo CLH HLM” value is on record as 18.6* mL/min/kg. Also, the results for the CLint scaled in series [6] and in series [11] were 11 L/h/kg and 32.5 L/h/kg, respectively. Also, the results for the half-life in [6], in [10] and in [11] were 13.1 min, below 8 min and 14.5 min, respectively. Besides, the IC50 in series [1] is 1.3 nM; in series [2] (setting [18]), 1.4 nM; in [13], 0.6 nM; in series [8] it was 1.1 nM; in series [14], 1.1 nM. The logD at 2 h in series [7] amounted to 2.9. The Papp at 4 h, 1 mM in series [9] was 5.01 nm/s. In series [10], the “Plasma stability (in words)” value is listed as “high degree of lability”. Besides, the “Estimated in vivo CLH MLM” value in series [11] is given as 77.2* mL/min/kg. The “Activities against P. berghei sporozoite liver stages (in words)” value in series [15] is given as “sub-nanomolar”.

With `CCCCCCCCCCOc1cc2c(=O)c(C(=O)NCCOCCO)cn(CCO)c2cc1OCC` [RMB073], the Plasma half-life result in series [16] was “greater than 6 h”. Moreover, the “Predicted kinetic solubility at pH 7.4” value in series [17] is above 150 µM.
